# From ChEMBL document CHEMBL1143622 (J Med Chem, 2005)
# Tests used:
# [1] = Inhibitory activity against Coagulation factor X
# [2] = biological target: Integrin alpha-IIb/beta-3 (Homo sapiens, UniProt P05106+P08514); assay: Inhibitory activity against binding of Fibrinogen to thrombocyte alpha IIb beta-3 integrin; type: protein-complex assay
# [3] = Inhibitory activity against trypsin
# [4] = Inhibitory activity against thrombin
# [5] = biological target: Thrombin & trypsin (Homo sapiens) (UniProt P00734+P07477+P07478+P35030); assay: Selectivity against Thrombin to that of trypsin; type: protein assay
# [6] = Inhibitory activity against thrombocyte aggregation induced by collagen; type: functional
# [7] = Inhibitory activity against thrombocyte aggregation induced by ADP; type: functional
# Chain of Integrin alpha-IIb/beta-3 (P05106 27-788 limits assumed): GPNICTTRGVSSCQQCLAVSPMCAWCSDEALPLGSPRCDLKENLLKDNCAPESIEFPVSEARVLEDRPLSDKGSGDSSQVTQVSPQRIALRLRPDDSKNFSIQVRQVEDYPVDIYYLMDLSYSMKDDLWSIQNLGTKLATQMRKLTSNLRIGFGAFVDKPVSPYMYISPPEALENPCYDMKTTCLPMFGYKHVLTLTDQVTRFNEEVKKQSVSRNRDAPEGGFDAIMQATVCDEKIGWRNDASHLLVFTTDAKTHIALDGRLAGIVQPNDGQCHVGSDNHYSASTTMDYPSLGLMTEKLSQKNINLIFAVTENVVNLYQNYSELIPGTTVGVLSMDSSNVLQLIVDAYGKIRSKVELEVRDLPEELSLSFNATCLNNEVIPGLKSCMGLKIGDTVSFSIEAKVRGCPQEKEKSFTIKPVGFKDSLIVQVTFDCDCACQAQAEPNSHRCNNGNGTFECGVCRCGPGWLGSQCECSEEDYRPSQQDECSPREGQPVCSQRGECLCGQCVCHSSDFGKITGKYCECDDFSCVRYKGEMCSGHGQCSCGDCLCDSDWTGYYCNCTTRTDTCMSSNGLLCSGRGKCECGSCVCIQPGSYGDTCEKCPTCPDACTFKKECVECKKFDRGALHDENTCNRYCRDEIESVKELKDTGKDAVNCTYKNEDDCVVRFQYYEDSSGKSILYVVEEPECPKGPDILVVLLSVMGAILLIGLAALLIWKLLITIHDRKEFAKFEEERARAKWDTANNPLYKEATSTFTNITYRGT
# Chain of Integrin alpha-IIb/beta-3 (P08514 32-887 limits assumed): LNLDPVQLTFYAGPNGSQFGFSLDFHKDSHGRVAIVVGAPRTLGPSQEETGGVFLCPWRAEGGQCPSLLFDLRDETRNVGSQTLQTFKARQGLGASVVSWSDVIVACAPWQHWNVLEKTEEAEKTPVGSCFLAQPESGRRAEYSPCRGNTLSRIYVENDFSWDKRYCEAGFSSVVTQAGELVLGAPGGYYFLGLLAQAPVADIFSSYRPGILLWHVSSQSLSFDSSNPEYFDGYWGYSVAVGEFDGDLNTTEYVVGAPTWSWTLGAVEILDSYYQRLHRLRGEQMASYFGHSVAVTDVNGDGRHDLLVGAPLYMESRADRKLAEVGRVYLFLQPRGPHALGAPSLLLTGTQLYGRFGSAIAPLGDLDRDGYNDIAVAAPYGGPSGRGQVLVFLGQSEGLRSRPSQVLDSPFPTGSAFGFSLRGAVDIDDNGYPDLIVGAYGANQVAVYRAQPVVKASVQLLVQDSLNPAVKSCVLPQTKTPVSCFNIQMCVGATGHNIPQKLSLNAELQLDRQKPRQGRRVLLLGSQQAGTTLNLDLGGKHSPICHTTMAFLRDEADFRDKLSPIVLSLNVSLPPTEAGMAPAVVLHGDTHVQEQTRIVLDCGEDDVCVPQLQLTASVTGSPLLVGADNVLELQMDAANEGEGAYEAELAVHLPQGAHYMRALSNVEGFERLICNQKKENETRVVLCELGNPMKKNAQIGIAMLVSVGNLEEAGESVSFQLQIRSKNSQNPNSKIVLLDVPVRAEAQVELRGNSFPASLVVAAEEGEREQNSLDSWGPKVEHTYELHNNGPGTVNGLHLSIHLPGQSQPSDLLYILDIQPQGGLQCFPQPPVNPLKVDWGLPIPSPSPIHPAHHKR
# Chain of Integrin alpha-IIb/beta-3 (P08514 891-1039 limits assumed): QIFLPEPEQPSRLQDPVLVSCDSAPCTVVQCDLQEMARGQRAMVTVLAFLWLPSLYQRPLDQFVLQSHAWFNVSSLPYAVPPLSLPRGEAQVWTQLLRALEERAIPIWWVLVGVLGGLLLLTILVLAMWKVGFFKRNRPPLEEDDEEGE
SMILES,Ki [1] [µM],Ki [2] [µM],Ki [3] [µM],Ki [4] [µM],Selectivity [5],IC50 [6] [µM],IC50 [7] [µM]
N=C(N)c1ccc(CN2C(=O)COc3cc(NC(=O)C(Cc4ccccc4)C(=O)N[C@@H](CCC(=O)O)C(=O)O)ccc32)cc1 (stereo not given in full),25.7,0.206,17.7,49.4,0.4,–,–
CCOC(=O)CNC(=O)C(Cc1ccccc1)C(=O)Nc1ccc2c(c1)OCC(=O)N2Cc1ccc(C(=N)N)cc1 (stereo not given),20.6,6.84,8.4,12.1,0.69,–,–
CCOC(=O)[C@H](C)NC(=O)[C@H](Cc1ccccc1)C(=O)Nc1ccc2c(c1)OCC(=O)N2Cc1ccc(C(=N)N)cc1,21.1,59.1,9.6,20.6,0.5,–,–
CN1C(=O)C(OCc2ccc(C(=N)N)cc2)Oc2cc(C(=O)N[C@@H](CC(=O)O)c3ccccc3)ccc21 (stereo not given in full),> 200,1.64,26.5,14.9,–,–,–
CCOC(=O)C[C@H](NC(=O)c1ccc2c(c1)OC(OCc1ccc(C(=N)N)cc1)C(=O)N2C)c1ccccc1 (stereo not given in full),54.6,24.6,16,–,4.2,–,–
COC(=O)C(Cc1ccccc1)C(=O)Nc1ccc2c(c1)OCC(=O)N2Cc1ccc(C(=N)N)cc1 (stereo not given),22.3,0.973,5.3,38.6,0.14,85,63
CCOC(=O)[C@H](C)NC(=O)C(Cc1ccccc1)C(=O)Nc1ccc2c(c1)OCC(=O)N2Cc1ccc(C(=N)N)cc1 (stereo not given in full),26.8,7.3,12.1,21.3,0.57,–,–
N=C(N)c1ccc(CN2C(=O)COc3cc(NC(=O)C(Cc4ccccc4)C(=O)O)ccc32)cc1 (stereo not given),31.6,3.94,5.5,53.8,0.1,–,–
CCOC(=O)CC[C@H](NC(=O)C(Cc1ccccc1)C(=O)Nc1ccc2c(c1)OCC(=O)N2Cc1ccc(C(=N)N)cc1)C(=O)OCC (stereo not given in full),19.2,3.66,10.5,21.6,0.5,–,–
CCOC(=O)[C@H](Cc1ccccc1)C(=O)Nc1ccc2c(c1)OCC(=O)N2Cc1ccc(C(=N)N)cc1,8.8,5.19,5.5,16.3,0.3,–,–
CCOC(=O)CC[C@H](NC(=O)[C@H](Cc1ccccc1)C(=O)Nc1ccc2c(c1)OCC(=O)N2Cc1ccc(C(=N)N)cc1)C(=O)OCC,54.1,3.94,46.2,23.3,2,–,–
